Results taken from patent US10214531B2 (Institute for Drug Discovery, LLC, priority 2013, dated 2019).
Structures can show the parent of a compound that is named as a salt.

Biological target: recombinant human AMCase (Homo sapiens, UniProt Q9BZP6)
Experiment: Human AMCase Activity Assay
Type: biochemical
Conditions: recombinant hAMCase, 4-methylumbelliferyl chitobioside substrate, citrate buffer pH 5.2, 37° C., 60 minutes; read-out: Activity (IC50 value key)
Protocol: Human AMCase Activity Assay
The assay was run in the 96-well plate format, each reaction in the total volume of 100 μl. 4-Methylumbelliferyl B-D-N,N′ diacetylchitobioside hydrate was used as a substrate for the enzyme. Upon hydrolysis by AMCase, the substrate releases 4-methylumbelliferyl (4MU), when ionized in basic pH, emits fluorescence of 460 nm.
Briefly, 40 μl of a substrate was added to each well, followed by 10 μl of compound dilution and 50 μl of hAMCase recombinant enzyme solution. The reaction was carried out in citrate buffer, pH 5.2, in the dark, at 37° C. for 60 minutes with shaking.

Sequence of recombinant human AMCase (Q9BZP6 22-476): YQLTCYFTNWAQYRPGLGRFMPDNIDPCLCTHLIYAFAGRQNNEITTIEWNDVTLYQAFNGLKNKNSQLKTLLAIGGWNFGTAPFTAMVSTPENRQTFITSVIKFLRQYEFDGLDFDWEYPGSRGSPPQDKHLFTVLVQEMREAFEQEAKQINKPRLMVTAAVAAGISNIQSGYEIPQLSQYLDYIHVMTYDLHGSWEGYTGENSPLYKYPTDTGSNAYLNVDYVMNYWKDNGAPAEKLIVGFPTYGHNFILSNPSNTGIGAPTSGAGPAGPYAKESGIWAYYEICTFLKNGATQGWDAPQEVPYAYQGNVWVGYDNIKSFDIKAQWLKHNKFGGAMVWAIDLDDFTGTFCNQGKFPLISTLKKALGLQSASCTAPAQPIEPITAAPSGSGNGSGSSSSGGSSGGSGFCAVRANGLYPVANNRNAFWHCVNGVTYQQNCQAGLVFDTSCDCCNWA

Compound	IC50 [µM]
Nc1n[nH]c(N2CCC(N(CCc3ccc(Cl)cc3)Cc3ccncc3)CC2)n1 [Example 108, 1-(3-amino-1H-1,2,4-triazol-5-yl)-N-(4-chlorophenethyl)-N-(pyridin-4-ylmethyl) piperidin-4-amine]	< 0.1
N#Cc1ccc(CN(CCc2ccc(Cl)cc2)C2CCN(c3nc(N)n[nH]3)CC2)cc1 [Example 142, 4-(((1-(3-amino-1H-1,2,4-triazol-5-yl)piperidin-4-yl)(4-chlorophenethyl)amino)methyl)benzonitrile]	< 0.1
CC(=O)OCCCC1CN(c2nc(N)n[nH]2)CCN1CCCc1ccc(Br)cc1 (centres unmarked) [Example 224, 3-(4-(3-amino-1H-1,2,4-triazol-5-yl)-1-(3-(4-bromophenyl)propyl)piperazin-2-yl)propylacetate]	0.1 to 1
C[C@H](CN1CCN(c2nc(N)n[nH]2)CC1)Oc1ccc(Cl)cc1 [Example 64, (R)-5-(4-(2-(4-chlorophenoxy)propyl)piperazin-1-yl)-1H-1,2,4-triazol-3-amine]	10 to 100
Nc1n[nH]c(N2CCC(CNC(=O)Nc3cccc(Cl)c3)CC2)n1 [Example 218]	> 100
CC1CN(c2nc(N)n[nH]2)CCC1NS(=O)(=O)Cc1ccc(Br)cc1 (centres unmarked) [Example 244, N-(1-(3-amino-1H-1,2,4-triazol-5-yl)-3-methylpiperidin-4-yl)-1-(4-bromophenyl)methanesulfonamide]	1 to 10
Nc1nc(N2CCC(N(CCc3ccc(Cl)cc3)Cc3cccc(C(F)(F)F)c3)CC2)n[nH]1 [Example 156, 1-(3-amino-1H-1,2,4-triazol-5-yl)-N-(4-chlorophenethyl)-N-(3-(trifluoromethyl)benzyl)piperidin-4-amine]	< 0.1
Nc1n[nH]c(N2CCC(N(CCc3ccc(Cl)cc3)Cc3ccccc3CO)CC2)n1 [Example 164, (2-(((1-(3-amino-1H-1,2,4-triazol-5-yl)piperidin-4-yl)(4-chlorophenethyl)amino)methyl)phenyl)methanol dihydrochloride]	< 0.1
Nc1n[nH]c(N2CCC(c3nnc(-c4ccc(F)cc4)o3)CC2)n1 [Example 43, 5-(4-(5-(4-fluorophenyl)-1,3,4-oxadiazol-2-yl)piperidin-1-yl)-1H-1,2,4-triazol-3-amine]	> 100
CC(C)(O)CCC1CN(c2nc(N)n[nH]2)CCN1CCCc1ccc(Br)cc1 (centres unmarked) [Example 229, 4-(4-(3-amino-1H-1,2,4-triazol-5-yl)-1-(3-(4-bromophenyl)propyl)piperazin-2-yl)-2-methylbutan-2-ol]	1 to 10
CC(Cc1ccc(Br)cc1)CN1CCN(c2nc(N)n[nH]2)CC1 (centres unmarked) [Example 39, 5-(4-(3-(4-bromophenyl)-2-methylpropyl)piperazin-1-yl)-1H-1,2,4-triazol-3-amine dihydrochloride]	1 to 10
Nc1n[nH]c(N2CCC(NS(=O)(=O)Cc3cccc(Cl)c3)CC2)n1 [Example 59, N-(1-(3-amino-1H-1,2,4-triazol-5-yl)piperidin-4-yl)-1-(3-chlorophenyl)methanesulfonamide]	1 to 10
Nc1n[nH]c(N2CCC(N(CCc3ccc(Cl)cc3)Cc3cccc(CO)c3)CC2)n1 [Example 100, (3-(((1-(3-amino-1H-1,2,4-triazol-5-yl)piperidin-4-yl)(4-chlorophenethyl)amino)methyl)phenyl)methanol]	< 0.1
Nc1n[nH]c(N2CCC(CCCCO)(NS(=O)(=O)Cc3ccc(Br)cc3)CC2)n1 [Example 256, N-(1-(3-amino-1H-1,2,4-triazol-5-yl)-4-(4-hydroxybutyl)piperidin-4-yl)-1-(4-bromophenyl)methanesulfonamide]	1 to 10
CN(CCc1ccccc1C(F)(F)F)C1CCN(c2nc(N)n[nH]2)CC1 [Example 169, 1-(3-amino-1H-1,2,4-triazol-5-yl)-N-methyl-N-(2-(trifluoromethyl)phenethyl)piperidin-4-amine]	1 to 10
CN(CCc1cccnc1)C1CCN(c2nc(N)n[nH]2)CC1 [Example 131, 1-(3-amino-1H-1,2,4-triazol-5-yl)-N-methyl-N-(2-(pyridin-3-yl)ethyl)piperidin-4-amine dihydrochloride]	10 to 100
CC1CN(c2nc(N)n[nH]2)CCC1N(C)CCc1ccc(Cl)cc1 (centres unmarked) [Example 154, 1-(3-amino-1H-1,2,4-triazol-5-yl)-N-(4-chlorophenethyl)-N,3-dimethylpiperidin-4-amine dihydrochloride]	0.1 to 1
CN(CCc1ccc(F)cc1)C1CCN(c2nc(N)n[nH]2)CC1 [Example 183, 1-(3-amino-1H-1,2,4-triazol-5-yl)-N-(4-fluorophenethyl)-N-methylpiperidin-4-amine]	1 to 10
Nc1n[nH]c(N2CCC(CC(=O)Nc3ccc(Br)cc3)CC2)n1 [Example 70, 2-(1-(3-amino-1H-1,2,4-triazol-5-yl)piperidin-4-yl)-N-(4-bromophenyl)acetamide]	> 100

The remaining lines, values ahead:

IC50 [µM]	Compound
> 100	Nc1n[nH]c(N2CCC(C(=O)NCc3ccccc3F)CC2)n1 [Example 51, 1-(3-amino-1H-1,2,4-triazol-5-yl)-N-(2-fluorobenzyl)piperidine-4-carboxamide]
> 100	CC(Oc1ccccc1F)C(=O)N1CCN(c2nc(N)n[nH]2)CC1 (centres unmarked) [Example 44, 1-(4-(3-amino-1H-1,2,4-triazol-5-yl)piperazin-1-yl)-2-(2-fluorophenoxy)propan-1-one]
0.1 to 1	Nc1n[nH]c(N2CCN(C(CCc3ccc(Br)cc3)Cc3ccccc3)CC2)n1 (centres unmarked) [Example 257, 5-(4-(4-(4-bromophenyl)-1-phenylbutan-2-yl)piperazin-1-yl)-1H-1,2,4-triazol-3-amine trifluoroacetate]
1 to 10	C[C@H](CN1CCN(c2nc(N)n[nH]2)CC1)Oc1ccc(Br)cc1 [Example 61, (R)-5-(4-(2-(4-bromophenoxy)propyl)piperazin-1-yl)-1H-1,2,4-triazol-3-amine]
> 100	Nc1n[nH]c(N2CCN(C(=O)OCc3ccccc3)CC2)n1 [Example 47, benzyl 4-(3-amino-1H-1,2,4-triazol-5-yl)piperazine-1-carboxylate]
> 100	CC(Oc1cccc(F)c1F)C(=O)N1CCN(c2nc(N)n[nH]2)CC1 (centres unmarked) [Example 37, 1-(4-(3-amino-1H-1,2,4-triazol-5-yl)piperazin-1-yl)-2-(2,3-difluorophenoxy)propan-1-one]
> 100	Nc1n[nH]c(N2CCN(C(=O)COc3ccc4ccccc4c3)CC2)n1 [Example 25, 1-(4-(3-amino-1H-1,2,4-triazol-5-yl)piperazin-1-yl)-2-(naphthalen-2-yloxy) ethanone]
> 100	Nc1n[nH]c(N2CCN(C(=O)C(O)Cc3ccccc3Cl)CC2)n1 (centres unmarked) [Example 73, 1-(4-(3-amino-1H-1,2,4-triazol-5-yl)piperazin-1-yl)-3-(2-chlorophenyl)-2-hydroxypropan-1-one]
> 100	C[C@@H](Oc1ccc(Cl)cc1)C(=O)N1CCN(c2nc(N)n[nH]2)CC1 [Example 9, (R)-1-(4-(3-amino-1H-1,2,4-triazol-5-yl)piperazin-1-yl)-2-(4-chlorophenoxy)-propan-1-one]
0.1 to 1	C[C@H](CN1CCN(c2nc(N)n[nH]2)CC1)Oc1ccc(Br)cc1 [Example 90, (R)-5-(4-(2-(4-bromophenoxy)propyl)piperazin-1-yl)-1H-1,2,4-triazol-3-amine]
